Results reported in US12213485B2, “Synergistic methods of using benzoxaborole compounds and preservative gases as an antimicrobial for crops” (AGROFRESH INC., priority 2016, dated 2025).

How the values were obtained:
[1] = system: Aspergillus brasiliensis (ASPEBR); assay: In vitro fungal growth on inoculated agar plates, benzoxaborole and CO2 chamber treatment; type: cell-based
Excerpt: (§1) The following experiments were used to determine synergy between benzoxaborole Compounds A, B, and/or C and preservative gases, such as carbon dioxide (CO2) and sulfur dioxide (SO2). Specific rates or any other unique conditions are noted within the corresponding results tables. Each experiment comprised an air-tight 36 liter (L) chamber (Fisher Scientific, P/N: 08-642-23C), fitted with a bulkhead septum port (Swagelok, P/N: SS-400-61, Solon, OH) used for treatment delivery, as well as for monitoring (using needle extraction) carbon dioxide (CO2), sulfur dioxide (SO2), oxygen (O2) or other headspace samples. A variable speed fan (Thermaltake, Mobile Fan II, P/N: A1888, Taipei City, Taiwan) set to low was also used to circulate the headspace atmosphere.
(§2) In vitro and in vivo experiments were performed concurrently in triple replicates (i.e., triplicate) unless otherwise noted. For in vitro experiments, a single 6-well microtiter plate or three, 10-cm petri plates each containing half strength Potato Dextrose Agar were prepared. Each well or plate was inoculated with 1 microliter (μL) of 1×10^5 spores/ml of the appropriate pathogenic spore suspension (e.g., Botrytis cinerea, BOTRCI; Penicillium expansum, PENIEX; Mucor piriformis, MUCOPI; Fusarium sambucinum FUSASA; or Aspergillus brasiliensis, ASPEBR). The inoculated microtiter or petri plates were then sealed with a breathable film (AeraSeal; P/N: B-100, Excel Scientific, Victorville, CA).
(§3) For treatment, the inoculated agar plates and clamshells containing fruits (e.g., strawberries and grapes) were placed inside a 36 L experimental chamber unit, which was then sealed prior to commencement of compound treatments. The chamber remained sealed throughout the duration of the experiment except for addition of treatment to the chamber, and post-treatment ventilation.
(§4) Benzoxaborole Compound A or Compound B was dissolved in acetone and dispensed onto a 60 mm Whatman #1 filter paper disk using a pipette. The acetone was permitted to evaporate for five minutes before the disk was placed on a watch glass in each chamber.
(§5) A 12% CO2 headspace treatment was then established in the chamber by permitting 10 grams (g) of crushed dry ice placed in a weigh boat in the chamber to evaporate in the sealed chamber. However, the bulkhead port of the chamber was loosened to permit the release of internal pressure. Optionally, a fan was used during the initial hours of treatment (i.e., up to about 6 hours of treatment) to ensure uniform treatment exposure of fruits and plates.
(§6) Untreated controls and CO2 treated chambers contained an acetone-treated disk with similar evaporation for five minutes. CO2 and O2 levels in the chamber were monitored using a handheld gas detector (Dansensor Checkpoint II; P/N 600111, Ringsted, Denmark). Temperature and relative humidity were also monitored within the chamber using data loggers (Onset HOBO; P/N U12-013, Bourne, MA).
(§7) The chamber for all in vitro and in vivo experiments was held at room temperature (i.e., from about 21° C. to about 23° C.) typically for about 3.5 days (i.e., about 84 hours) of treatment exposure. Chambers were then vented. After an additional 2-3 days with the chamber at room temperature, post-treatment radial growth (in mm) of each in vitro pathogen (see Examples 1-7, Tables 1-7) was measured on the inoculated plates using electronic calipers (Mitutoyo, P/N: CD-6-CX, Aurora, IL). In addition, the point of inoculation on fruits was assessed for indication of in vivo disease incidence (e.g., yes or no) and severity of disease incidence (see Examples 8-16, Tables 8-16). Disease severity was rated on a scale ranging from 0 to 4, where “0” indicated no disease severity, “1” indicated minimal disease severity, “2” indicated medium disease severity, “3” indicated high disease severity, and “4” indicated exceptionally high disease severity. […]

[2] = system: Botrytis cinerea (BOTRCI); assay: as above; type: cell-based
Excerpt: as §1, §2, §3, §4, §5, §6, §7

[3] = system: Fusarium sambucinum (FUSASA); assay: as above; type: cell-based
Excerpt: as §1, §2, §3, §4, §5, §6, §7

[4] = system: Mucor piriformis (MUCOPI); assay: as above; type: cell-based; details: Table 3, 12% CO2 alone, evaluated 2 days after treatment, 6-well microtiter plate, fan first 6 hours, >90% R.H.
Excerpt: as §1, §2, §3, §4, §5, §6, §7

[5] = system: Penicillium expansum (PENIEX); assay: as above; type: cell-based
Excerpt: as §1, §2, §3, §4, §5, §6, §7

[6] = system: Botrytis cinerea (BOTRCI) on strawberries; assay: In vivo disease severity on wound-inoculated strawberries, benzoxaborole and CO2 chamber treatment
Excerpt: as §1
(§8) For in vivo experiments, eight strawberry fruits per repetition were surface sterilized with a 70% ethanol solution. After sterilization, the strawberries were rinsed twice with deionized water. Each strawberry fruit was wounded using a T15 screwdriver tip to a uniform depth of eight mm (8 mm). Each fruit wound was inoculated with 20 μL of 1×10^5 spores/ml pathogen spore suspension of B. cinerea or M. piriformis. The strawberries were then placed with the stem facing downwards inside a 1-pound strawberry clamshell.
as §3, §4, §5, §6, §7

[7] = system: Mucor piriformis (MUCOPI) on strawberries; assay: as above; details: Table 10, 12% CO2 alone, evaluated 2 days after treatment, fan first 6 hours, >90% R.H.
Excerpt: as §1, §8, §3, §4, §5, §6, §7

[8] = system: Botrytis cinerea (BOTRCI) on table grapes; assay: In vivo disease severity on wound-inoculated table grapes, benzoxaborole and CO2 chamber treatment; details: Table 15, 12% CO2 alone, evaluated 1 day after treatment, fan continuous
Excerpt: as §1
(§9) Similarly, table grape fruits were also tested in vivo. More specifically, 16-20 table grapes per repetition were washed and inoculated with pathogens (as described above for the strawberries). However, an ethanol-sterilized push pin, rather than a T15 screwdriver, was used to wound the stem-end of the grapes. The grapes were inoculated in the wound, and then arranged inside a 1-pint clamshell.
as §3, §4, §5, §6, §7

[9] = system: Penicillium expansum (PENIEX) on table grapes; assay: as above; details: Table 16, 12% CO2 alone, evaluated 1 day after treatment, fan continuous
Excerpt: as §1, §9, §3, §4, §5, §6, §7

[10] = Table 5, 12% CO2 alone, evaluated 2 days after treatment, 6-well plate, fan first 6 hours, >90% R.H.
[11] = Table 1, 12% CO2 alone, evaluated 2 days after treatment completion, 6-well microtiter plate, 4 replicates, fan first 6 hours
[12] = Table 4, 12% CO2 alone, evaluated 2 days after treatment completion, 6-well microtiter plate, fan first 6 hours
[13] = Table 5, compound 0.14 mg/L + 12% CO2, Colby equation E=x+y−x*y/100
[14] = Table 5, compound 0.14 mg/L + 12% CO2, evaluated 2 days after treatment, 6-well plate, fan first 6 hours, >90% R.H.
[15] = Table 5, compound alone 0.14 mg/L, evaluated 2 days after treatment, 6-well plate, fan first 6 hours, >90% R.H.

Compound: O=C=O [CO2, carbon dioxide]
- Growth (diameter, mm) 12% CO2 [1, 10]: 26.2 mm
- Growth (diameter, mm) 12% CO2 [2, 11]: 28.0 mm
- Growth (diameter, mm) 12% CO2 ([2]; Table 3, 12% CO2 alone, evaluated 2 days after treatment, 6-well microtiter plate, fan first 6 hours, >90% R.H.): 30.9 mm
- Growth (diameter, mm) 12% CO2 [2, 12]: 33.4 mm
- Growth (diameter, mm) 12% CO2 [2, 10]: 35.0 mm
- Growth (diameter, mm) 12% CO2 ([2]; Table 6, 12% CO2 alone, evaluated 3 days after treatment, 10 cm petri plates, fan continuous): 78.9 mm
- Growth (diameter, mm) 12% CO2 [3, 10]: 33.9 mm
- Growth (diameter, mm) 12% CO2 [4]: 35.0 mm
- Growth (diameter, mm) 12% CO2 [5, 11]: 18.6 mm
- Growth (diameter, mm) 12% CO2 ([5]; Table 2, 12% CO2 alone, evaluated 2 days after treatment, 6-well microtiter plate, fan first 6 hours, >90% R.H.): 21.3 mm
- Growth (diameter, mm) 12% CO2 [5, 12]: 21.2 mm
- Growth (diameter, mm) 12% CO2 [5, 10]: 19.9 mm
- Growth (diameter, mm) 12% CO2 ([5]; Table 7, 12% CO2 alone, evaluated 3 days after treatment, 10 cm Petri plates, fan continuous): 25.8 mm
- Growth (Severity, 0 to 4) 12% CO2 ([6]; Table 8, 12% CO2 alone, evaluated 2 days after treatment, 4 replicates, fan first 6 hours, >90% R.H.): 3.7
- Growth (Severity, 0 to 4) 12% CO2 ([6]; Table 9, 12% CO2 alone, evaluated 3 days after treatment, fan first 6 hours, >90% R.H.): 3.5
- Growth (Severity, 0 to 4) 12% CO2 ([6]; Table 11, 12% CO2 alone, evaluated 2 days after treatment, fan first 6 hours, >90% R.H.): 2.7
- Growth (Severity, 0 to 4) 12% CO2 ([6]; Table 12, 12% CO2 alone, evaluated 2 days after treatment, fan first 6 hours, >90% R.H.): 3.4
- Growth (Severity, 0 to 4) 12% CO2 ([6]; Table 13, 12% CO2 alone, evaluated 3 days after treatment, fan run continuously): 3.2
- Growth (Severity, 0 to 4) 12% CO2 ([6]; Table 14, 12% CO2 alone, evaluated 3 days after treatment, fan continuous): 3.9
- Growth (Severity, 0 to 4) 12% CO2 [7]: 3.0
- Growth (Severity, 0 to 4) 12% CO2 [8]: 1.4
- Growth (Severity, 0 to 4) 12% CO2 [9]: 1.9

Compound: Fc1ccc2c(c1)COB2OCCOB1OCc2cc(F)ccc21 [Compound B]
- Colby Calculation [1, 13]: 112.0
- Growth (diameter, mm) Cmpd + 12% CO2 [1, 14]: 0.0 mm
- Growth (diameter, mm) Cmpd [1, 15]: 3.6 mm
- Colby Calculation [2, 13]: 103.4
- Growth (diameter, mm) Cmpd + 12% CO2 [2, 14]: 2.7 mm
- Growth (diameter, mm) Cmpd [2, 15]: 3.5 mm
- Colby Calculation [3, 13]: 100.4
- Growth (diameter, mm) Cmpd + 12% CO2 [3, 14]: 3.4 mm
- Growth (diameter, mm) Cmpd [3, 15]: 3.6 mm
- Colby Calculation [5, 13]: 102.4
- Growth (diameter, mm) Cmpd + 12% CO2 [5, 14]: 6.4 mm
- Growth (diameter, mm) Cmpd [5, 15]: 7.7 mm
- Colby Calculation ([6]; Table 11, compound 0.14 mg/L + 12% CO2, Colby equation E=x+y−x*y/100): 105.0
- Growth (Severity, 0 to 4) Cmpd + 12% CO2 ([6]; Table 11, compound 0.14 mg/L + 12% CO2, evaluated 2 days after treatment, fan first 6 hours, >90% R.H.): 0.5
- Growth (Severity, 0 to 4) Cmpd ([6]; Table 11, compound alone 0.14 mg/L, evaluated 2 days after treatment, fan first 6 hours, >90% R.H.): 0.9
- Colby Calculation ([6]; Table 12, compound 0.14 mg/L + 12% CO2, Colby equation E=x+y−x*y/100): 100.9
- Growth (Severity, 0 to 4) Cmpd + 12% CO2 ([6]; Table 12, compound 0.14 mg/L + 12% CO2, evaluated 2 days after treatment, fan first 6 hours, >90% R.H.): 0.3
- Growth (Severity, 0 to 4) Cmpd ([6]; Table 12, compound alone 0.14 mg/L, evaluated 2 days after treatment, fan first 6 hours, >90% R.H.): 0.4
